According to patent US20110224240A1 (Myrexis, Inc., priority 2010, published 2011):

Legend:
B16-F0 tumor = assay: B16-F0 melanoma allograft study in nude mice; assay type: in vivo; conditions: melanoma (B16-F0) allografts in nude mice, oral dosing (50 mg/kg qd×5 or 200 mg/kg qwk×2 p.o.), relative to vehicle
Protocol: Female Crl:Nu/Nu-nuBR mice (Charles River Labs, Wilmington, Mass.) were implanted subcutaneously with 10^6 B16-F0 cells in the right flank. Animals were housed by groups in Positive Individual Ventilation cages in flat-bottom cages with no more than ten mice per cage. Environmental controls were set to maintain a temperature between 65 and 75° F. with a relative humidity of 30-70% in a 12:12 hour light:dark cycle. Animals were fed and watered ad libitum. Tumors were allowed to grow to approximately 100 mm^3 and then mice were placed into test groups (N=10). Animals were treated with vehicle, 50 mg/kg Compound 1 qd×5 p.o. or 200 mg/kg Compound 1 qwk×2 p.o. The mice were observed daily for mortality and signs of toxicity. Tumor growth was monitored externally using a caliper and volumes calculated using the formula [p/6 (width^2×length)], in which width represents the smaller tumor diameter. Studies were completed when the first animal achieved a tumor volume >1500 mm^3. Statistical analysis of variance with unadjusted pair wise comparison was performed using SAS software (Cary, N.C.).

MCF-7/VP (MRP-1) = assay: Multidrug resistant cell assay, cytotoxicity; conditions: Homo sapiens, MCF7-VP, 72 h, read-out: Various MDR Cell Line Cytotoxicity IC50
B16F1 = assay: 72 hour cytotoxicity, ATP-Lite cell viability; assay type: cell-based; conditions: Mus musculus, B16-F1, B16F1, Melanoma, read-out: 72 Hour Cytotoxicity (IC50, nM ± SD)
Protocol: (§1) A P388 murine leukemia cell line was obtained from NCI, Frederick, Md. P388 cells were cultured in RPMI-1640 supplemented with 10% fetal bovine serum, 2 mM Glutamax, 1 mM sodium pyruvate, 0.1 mM non-essential amino acids and 10 mM HEPES. Cells were grown at 37° C. in a humidified 5% CO2 atmosphere. Exponentially growing P388 cells were plated at 5,000 cells/well in a 96-well flat-bottomed microtiter plate (Corning, Costar #3595, Lowell, Mass.). Twenty-four hours later, test compound was added to cells at final concentrations of 100 nM, 33.3 nM, 11.1 nM, 3.7 nM, 1.23 nM, 0.4 nM and 0.13 nM. Cellular viability was determined 72 hours later by measuring intracellular ATP with ATP-Lite assay system. The effect of compounds on cell viability was calculated by comparing the ATP levels of cells exposed to test compound with those of cells exposed to DMSO. A semi-log plot of relative ATP levels versus compound concentration was used to calculate the compound concentration required to inhibit growth by 50% (IC50). Data was analyzed by Prism software (GraphPad; San Diego, Calif.) by fitting it to a sigmoidal dose response curve.
(§2) A similar procedure was followed with six other cell lines and the results are shown in Table 1: HT-29, HCT-116, A549, OVCAR-3, MIAPaCa-2, and B16F1.

HCT-116 = assay: 72 hour cytotoxicity, ATP-Lite cell viability; assay type: cell-based; conditions: Homo sapiens, HCT-116, Colorectal Carcinoma, read-out: 72 Hour Cytotoxicity (IC50, nM ± SD)
Protocol: as §1, §2

OVCAR-3 = assay: 72 hour cytotoxicity, ATP-Lite cell viability; assay type: cell-based; conditions: Homo sapiens, OVCAR-3, Ovarian, read-out: 72 Hour Cytotoxicity (IC50, nM ± SD)
Protocol: as §1, §2

HT-29 = assay: 72 hour cytotoxicity, ATP-Lite cell viability; assay type: cell-based; conditions: Homo sapiens, HT-29, Colorectal, read-out: 72 Hour Cytotoxicity (IC50, nM ± SD)
Protocol: as §1, §2

A549 = assay: 72 hour cytotoxicity, ATP-Lite cell viability; assay type: cell-based; conditions: Homo sapiens, A549, Lung, read-out: 72 Hour Cytotoxicity (IC50, nM ± SD)
Protocol: as §1, §2

MIAPaCa-2 = assay: 72 hour cytotoxicity, ATP-Lite cell viability; assay type: cell-based; conditions: Homo sapiens, MIA PaCa-2, MIAPaCa-2, Pancreatic, read-out: 72 Hour Cytotoxicity (IC50, nM ± SD)
Protocol: as §1, §2

## COc1ccc(N(C)c2nc(CN)nc3ccccc23)cc1 [Compound 1]
B16-F0 tumor
  inhibition of tumor growth: Statistically significant (p<0.00005) inhibition of tumor growth
MCF-7/VP (MRP-1)
  IC50: 13 nM
B16F1
  IC50: 37 nM
HCT-116
  IC50: 7.6 ± 1.9 nM
OVCAR-3
  IC50: 29 ± 20.1 nM
HT-29
  IC50: 29 ± 2 nM
A549
  IC50: 54 nM
MIAPaCa-2
  IC50: 56 nM
